The test system of series [1] is human prostate cancer cells PC3. Kind of series: Growth of PC3 cells, XTT cell counting. Format: cell-based. Conditions: 10 μM, 48 hours, no magnetic field. The method, then: Cell cultivation: Place 150 μL of a mixture liquid containing 10000 human prostate cancer cells PC3 into every well of a 96-well culture plate. […] Agent addition: 24 hours later, separately mix […] magnetic nanocomposite (600 μg/mL), Taxol, and […]/Taxol magnetic nanomedicine with a RPMI1640 medium to form mixed solutions. […] Cell counting: […]
(In general: Tetrazolium dyes change colour on reduction, which living cells bring about.)

The test system of series [2] is human prostate cancer cells CWR22R. Briefly: Growth of CWR22R cells, XTT cell counting. The class given is cell-based. Conditions: 10 μM, 48 hours, no magnetic field. The method, then:
Cell cultivation: Place 150 μL of a mixture liquid containing 10000 human prostate cancer cells CW[…] into every well of a 96-well culture plate. […] Agent addition: 24 hours later, separately mix […] magnetic nanocomposite (600 μg/mL), Taxol, and […]/Taxol magnetic nanomedicine with a RPMI1640 medium to form mixed solutions. […] Cell counting: Remove RPMI1640 and add 120 μL of an XTT reaction liquid to the wells.

The subject of series [3] is tubulin protein.
The nature of series [4]: physchem.
Series [5] has as its system α-tubulin. Briefly: Content of α-tubulin in CWR22R cells, Western method. Conditions: 10 μM, 24 hours, no magnetic field.
The test system of series [6] is tubulin protein. Briefly: Stability analysis: residual activity by tubulin protein assay after storage. Conditions: stored at 25° C. for 14 days.

On to `CC(=O)O[C@H]1C(=O)[C@@]2(C)[C@H]([C@H](OC(=O)c3ccccc3)[C@]3(O)C[C@H](OC(=O)[C@H](O)[C@@H](NC(=O)c4ccccc4)c4ccccc4)C(C)=C1C3(C)C)[C@]1(OC(C)=O)CO[C@@H]1C[C@@H]2O` [Taxol], for which the PC3 growth-inhibition ratio in series [1] stood at 25%. Besides, the CWR22R growth-inhibition ratio in series [2] amounted to 41%. Also, in series [3], the half life was found to be 32 h. Also, the half-life in series [4] is 1140 min. In series [5], the α-tubulin inhibition ratio is 52%. The activity after storage entry in series [6] was “has lost its activity”.

For orientation: half-life means the time in which the quantity being followed falls by half. Read a high half-life as slow decline.

The values are drawn from patent US8889192B2, “Magnetic nanomedicine for inhibiting/treating human prostate cancer” (priority 2011, dated 2014).
